{"source": "patent US20090088380A1", "about": "“GHRH ANALOGS AND THERAPEUTIC USES THEREOF” (priority 2007, published 2009)", "tested_on": "malnourished subjects with CKD", "test": "Phase II CKD: 24-h urinary electrolytes", "type": "in vivo, human", "conditions": "for Calcium excretion: mean (SD) / Calcium/Creatinine ratio: median / EER Calcium: mean (SD) / EER Chloride: mean (SD) / EER Phosphate: mean (SD) / EER Potassium: mean (SD) / EER Sodium: mean (SD) / EFER Calcium: mean (SD) / EFER Chloride: mean (SD) / EFER Phosphate: mean (SD) / EFER Potassium: mean (SD) / EFER Sodium: mean (SD) / Fractional Pi reabsorption rate Pi/GFR: mean (SD) / Sodium excretion: mean (SD): ITT population", "description": "Subjects collected 24-hour urine samples at screening, baseline (Days 0 to 1) and Days 28 to 29. All of the samples were analysed for creatinine and urea clearance (mL/min). The samples collected at baseline and on Day 28 were also analysed for proteinuria (Coumassie method), PNA, sodium, potassium, chloride, calcium and phosphate. GFR was calculated using the Cockcroft-Gault formula: Electrolyte excretion rates were calculated as follows: ? [formula] Electrolyte fractional excretion rates were calculated as follows: [formula]", "key": {"[1]": {"conditions": "GHRH vs placebo, changes from baseline to Day 28"}, "[2]": {"conditions": "GHRH vs placebo, ANCOVA, assuming log-normal distribution"}}, "note": "Non-standard residues stand in square brackets, D forms with d. Residues, ends and D or L forms follow the SMILES beside them.", "data": [{"smiles": "CC[C@H](C)[C@H](NC(=O)[C@H](C)NC(=O)[C@H](CC(=O)O)NC(=O)[C@@H](C)NC(=O)[C@@H](N)Cc1ccc(O)cc1)C(=O)N[C@@H](Cc1ccccc1)C(=O)N[C@H](C(=O)N[C@@H](CC(N)=O)C(=O)N[C@@H](CO)C(=O)N[C@H](Cc1ccc(O)cc1)C(=O)N[C@@H](CCCNC(=N)N)C(=O)N[C@@H](CCCCN)C(=O)N[C@H](C(=O)N[C@@H](CC(C)C)C(=O)N[C@H](C)C(=O)N[C@@H](CCC(N)=O)C(=O)N[C@@H](CC(C)C)C(=O)N[C@@H](CO)C(=O)N[C@@H](C)C(=O)N[C@@H](CCCNC(=N)N)C(=O)N[C@@H](CCCCN)C(=O)N[C@@H](CCCCN)C(=O)N[C@@H](CC(C)C)C(=O)N[C@@H](CCC(N)=O)C(=O)N[C@@H](CC(=O)O)C(=O)N[C@H](C(=O)N[C@@H](CCSC)C(=O)N[C@@H](CO)C(=O)N[C@@H](CCCNC(=N)N)C(N)=O)[C@@H](C)CC)C(C)C)[C@@H](C)O", "note": "[GHRH analog #5, [D-Ala^2, D-Tyr^10, D-Ala^15, Lys^22] hGHRH(1-29)-NH2] (H-Y[dA]DAIFTNS[dY]RKVL[dA]QLSARKKLQDIMSR-NH2)", "values": [{"measurement": "Calcium excretion: mean (SD)", "setting": "Baseline", "value": "0.988 (0.916) mmol/m^2/24 h"}, {"measurement": "Calcium/Creatinine ratio: median", "setting": "Baseline", "value": 0.145}, {"measurement": "EER Calcium: mean (SD)", "setting": "Baseline", "value": "0.027 (0.027) mmol/kg/24 h"}, {"measurement": "EER Chloride: mean (SD)", "setting": "Baseline", "value": "2.213 (0.963) mmol/kg/24 h"}, {"measurement": "EER Phosphate: mean (SD)", "setting": "Baseline", "value": "0.328 (0.220) mmol/kg/24 h"}, {"measurement": "EER Potassium: mean (SD)", "setting": "Baseline", "value": "0.839 (0.332) mmol/kg/24 h"}, {"measurement": "EER Sodium: mean (SD)", "setting": "Baseline", "value": "2.428 (1.134) mmol/kg/24 h"}, {"measurement": "EFER Calcium: mean (SD)", "setting": "Baseline", "value": "1.933 (1.164) %"}, {"measurement": "EFER Chloride: mean (SD)", "setting": "Baseline", "value": "3.636 (1.945) %"}, {"measurement": "EFER Phosphate: mean (SD)", "setting": "Baseline", "value": "35.882 (14.172) %"}, {"measurement": "EFER Potassium: mean (SD)", "setting": "Baseline", "value": "28.325 (13.618) %"}, {"measurement": "EFER Sodium: mean (SD)", "setting": "Baseline", "value": "3.068 (1.658) %"}, {"measurement": "Fractional Pi reabsorption rate Pi/GFR: mean (SD)", "setting": "Baseline", "value": "0.861 (0.291) mmol/ml"}, {"measurement": "Sodium excretion: mean (SD)", "setting": "Baseline", "value": "89.90 (42.10) mmol/m^2/24 h"}, {"measurement": "Calcium excretion: mean (SD)", "setting": "Day 28", "value": "1.295 (1.231) mmol/m^2/24 h"}, {"measurement": "Calcium/Creatinine ratio: median", "setting": "Day 28", "value": 0.195}, {"measurement": "EER Calcium: mean (SD)", "setting": "Day 28", "value": "0.036 (0.036) mmol/kg/24 h"}, {"measurement": "EER Chloride: mean (SD)", "setting": "Day 28", "value": "2.277 (1.028) mmol/kg/24 h"}, {"measurement": "EER Phosphate: mean (SD)", "setting": "Day 28", "value": "0.273 (0.129) mmol/kg/24 h"}, {"measurement": "EER Potassium: mean (SD)", "setting": "Day 28", "value": "0.656 (0.315) mmol/kg/24 h"}, {"measurement": "EER Sodium: mean (SD)", "setting": "Day 28", "value": "2.624 (1.020) mmol/kg/24 h"}, {"measurement": "EFER Calcium: mean (SD)", "setting": "Day 28", "value": "2.743 (2.157) %"}, {"measurement": "EFER Chloride: mean (SD)", "setting": "Day 28", "value": "4.156 (2.541) %"}, {"measurement": "EFER Phosphate: mean (SD)", "setting": "Day 28", "value": "35.968 (12.979) %"}, {"measurement": "EFER Potassium: mean (SD)", "setting": "Day 28", "value": "26.766 (18.120) %"}, {"measurement": "EFER Sodium: mean (SD)", "setting": "Day 28", "value": "3.359 (1.156) %"}, {"measurement": "Fractional Pi reabsorption rate Pi/GFR: mean (SD)", "setting": "Day 28", "value": "0.829 (0.211) mmol/ml"}, {"measurement": "Sodium excretion: mean (SD)", "setting": "Day 28", "value": "96.70 (37.30) mmol/m^2/24 h"}, {"measurement": "Calcium excretion: adjusted difference", "setting": "[1]", "value": "−0.10", "unit": "mmol/m^2/24 h"}, {"measurement": "EER Calcium: adjusted difference", "setting": "[1]", "value": "−0.002", "unit": "mmol/kg/24 h"}, {"measurement": "EER Chloride: adjusted difference", "setting": "[1]", "value": "−0.136", "unit": "mmol/kg/24 h"}, {"measurement": "EER Phosphate: adjusted difference", "setting": "[1]", "value": 0.020, "unit": "mmol/kg/24 h"}, {"measurement": "EER Potassium: adjusted difference", "setting": "[1]", "value": "−0.086", "unit": "mmol/kg/24 h"}, {"measurement": "EER Sodium: adjusted difference", "setting": "[1]", "value": "−0.020", "unit": "mmol/kg/24 h"}, {"measurement": "EFER Calcium: adjusted difference", "setting": "[1]", "value": "−0.48", "unit": "%"}, {"measurement": "EFER Chloride: adjusted difference", "setting": "[1]", "value": "−1.13", "unit": "%"}, {"measurement": "EFER Phosphate: adjusted difference", "setting": "[1]", "value": "−3.64", "unit": "%"}, {"measurement": "EFER Potassium: adjusted difference", "setting": "[1]", "value": "−7.93", "unit": "%"}, {"measurement": "Fractional Pi reabsorption rate Pi/GFR: adjusted difference", "setting": "[1]", "value": -0.00006, "unit": "mmol/mL"}, {"measurement": "Sodium excretion: adjusted difference", "setting": "[1]", "value": "−1.18", "unit": "mmol/m^2/24 h"}, {"measurement": "Calcium/Creatinine ratio: ratio (ratio of means)", "setting": "[2]", "value": 0.82}, {"measurement": "EFER Sodium: ratio (ratio of means)", "setting": "[2]", "value": 0.79}, {"measurement": "Calcium excretion: mean difference between groups", "setting": "in vivo", "value": "−0.10", "unit": "mmol/m^2/24 h"}, {"measurement": "Calcium:creatinine ratio: ratio of means", "setting": "in vivo", "value": 0.82}, {"measurement": "EER chloride: mean difference between groups", "setting": "in vivo", "value": "−0.136", "unit": "mmol/kg/24 h"}, {"measurement": "EER phosphate: mean difference between groups", "setting": "in vivo", "value": 0.020, "unit": "mmol/kg/24 h"}, {"measurement": "EER potassium: mean difference between groups", "setting": "in vivo", "value": "−0.086", "unit": "mmol/kg/24 h"}, {"measurement": "EER sodium: mean difference between groups", "setting": "in vivo", "value": "−0.020", "unit": "mmol/kg/24 h"}, {"measurement": "EFER chloride: mean difference between groups", "setting": "in vivo", "value": "−1.13", "unit": "%"}, {"measurement": "EFER phosphate: mean difference between groups", "setting": "in vivo", "value": "−3.64", "unit": "%"}, {"measurement": "EFER potassium: mean difference between groups", "setting": "in vivo", "value": "−7.93", "unit": "%"}, {"measurement": "EFER sodium: ratio of means", "setting": "in vivo", "value": 0.79}, {"measurement": "Electrolyte excretion rate (EER) calcium: mean difference between groups in change baseline to Day 28", "setting": "in vivo", "value": "−0.002", "unit": "mmol/kg/24 h"}, {"measurement": "Electrolyte fractional excretion rate (EFER) calcium: mean difference between groups", "setting": "in vivo", "value": "−0.48", "unit": "%"}, {"measurement": "Fractional Pi reabsorption rate (Pi/GFR): mean difference between groups", "setting": "in vivo", "value": -0.000059, "unit": "mmol/mL"}, {"measurement": "Sodium excretion: mean difference between groups", "setting": "in vivo", "value": "−1.18", "unit": "mmol/m^2/24 h"}, {"measurement": "Fractional Pi reabsorption rate (Pi/GFR): mean difference between groups", "setting": "in vivo, listed as GHRH(1-29)NH2 synthetic analog", "value": -0.00006, "unit": "mmol/mL"}]}]}
